{
  "source": "patent US11261429B2",
  "about": "“Enriched and expanded human cord blood stem cells for treatment of hematological disorders” (ICAHN SCHOOL OF MEDICINE AT MOUNT SINAI, priority 2013, dated 2022)",
  "key": {"NSG mice": {"test_system": "NSG mice", "test": "Homing assay of re-isolated CD34+ cells in NSG mice", "format": "in vivo", "conditions": "16 and 48 hours after infusion, versus control conditions", "protocol": "The homing of re-isolated CD34+ cells (5×10^5/mouse) after treatment under control conditions or with VPA was performed as previously described (Shivtiel et at, “CD45 Regulates Homing and Engraftment of Immature Normal and Leukemic Human Cells in Transplanted Immunodeficient Mice,” Exp. Hematol. 39(12):1161-1170 (2011), which is hereby incorporated by reference in its entirety). The recipient NSG mice were purchased from the Jackson Laboratory and sublethally irradiated (300 cGy) 4 hours prior to infusion of the re-isolated CD34+ cells via the tail vein. Sixteen and 48 hours after their infusion, BM cells were harvested from 2 femurs and 2 tibias from each recipient mouse and analyzed by flow cytometry for the presence of human CD34+ cells using a human CD34-APC mAb. The homing of these cell populations was determined by quantitating the number of CD34+ cells per 10^6 acquired events in the BM of the recipient mice. […] Eight NSG mice received CD34+ cells cultured under control conditions, and 10 mice received CD34+ cells from VPA-containing cultures."}, "HDAC2": {"test_system": "HDAC2", "test": "HDAC protein levels in CB-MNCs, Western blot densitometry", "format": "cell-based, human", "conditions": "24 hr, SCR 8 μM, C433 80 μM, VPA 1.25 mM"}, "HDAC3": {"test_system": "HDAC3", "test": "HDAC protein levels in CB-MNCs, Western blot densitometry", "format": "cell-based, human", "conditions": "24 hr, SCR 8 μM, C433 80 μM, VPA 1.25 mM", "from_the_text": "Cellular proteins were separated by SDS-PAGE using Novex (Invitrogen) and transferred by iBlot (Invitrogen). The membranes were probed with mAbs against individual histone deacetylases (HDAC1, HDAC2, HDAC3, HDAC4, HDAC5, HDAC6, and β-actin; Cell Signaling Technology) and developed using a chemiluminescence system with HRP-conjugated secondary antibodies (Amersham Biosciences) according to the manufacturer's instructions."}, "NANOG": {"test_system": "NANOG", "test": "Pluripotency protein expression in re-isolated CD34+ cells, mAb staining and flow cytometry", "format": "cell-based, human", "conditions": "7 days", "protocol": "(§1) PCs and re-isolated, cultured CD34+ cells from control cultures and cultures containing VPA were fixed with methanol-free formaldehyde (2.8%) for 10 minutes at 37° C., briefly chilled on ice, and permeabilized with 100% ice-cold methanol. Cells were further incubated on ice for 20 minutes and blocked with incubation buffer (PBS containing 0.5% BSA) for 10 minutes and stained for SOX2 and OCT4 with an FITC-conjugated mAb or isotype controls for an hour at room temperature. Cells were also stained with a rabbit mAb for NANOG, followed by an FITC-conjugated anti-rabbit secondary antibody, and cells were washed and analyzed by flow cytometry."}, "OCT4": {"test_system": "OCT4", "test": "Pluripotency protein expression in re-isolated CD34+ cells, mAb staining and flow cytometry", "format": "cell-based, human", "conditions": "7 days", "protocol": "as §1"}, "SOX2": {"test_system": "SOX2", "test": "Pluripotency protein expression in re-isolated CD34+ cells, mAb staining and flow cytometry", "format": "cell-based, human", "conditions": "7 days", "protocol": "as §1"}, "CD34+CD90+ cells": {"test_system": "CD34+CD90+ cells", "test": "Cell cycle analysis by BrdU labeling", "format": "cell-based, human", "protocol": "The cell cycle status of the cultured CD34+CD90+ cells was assessed using the FITC-BrdU Kit (BD Pharmingen) according to the manufacturer's instructions. CB CD34+ cells cultured for 7 days under control conditions in the presence of VPA were subsequently pulsed with BrdU for 2.5 hours. […] After permeabilization, cells were treated with 30 μg of DNAse for 30 minutes at 37° C. and then stained with an FITC-conjugated anti-BrdU antibody and 7AAD. The cell cycle status of CD34+CD90+ gated cells was then documented using a FAC-SCanto II Flow Cytometer with FACSDiva software (BD Biosciences)."}, "hTERT": {"test_system": "hTERT", "test": "qPCR of pluripotency genes in CD34+ cells", "format": "cell-based, human", "conditions": "VPA-treated CD34+ cells", "protocol": "Total RNA was extracted from the human ES cell line 89 (WA09; WiCell Research Institute Inc., Madison, Wis., USA), PCs, reisolated CD34+ cells from control cultures or cultures containing VPA in SF and SC media using TRIzol and an RNeasy kit from QIAGEN, CA. Total RNA (0.5-1.0 μg) was reverse transcribed into cDNA using an RNA to cDNA EcoDry Premix kit (Clontech). The primer sequences are listed in Table 6. qPCR was performed using SYBR Green (Thermo Fisher Scientific) and the Realplex thermocycler (Eppendorf). All experiments were performed in triplicate, and non-template controls (lacking cDNA template were included in each assay. GAPDH served as an internal standard. The amplicons were run on a 2% agarose gel with a 50-bp-size (DNA ladder) marker."}, "CB CD34+ cells": {"test_system": "CB CD34+ cells", "test": "Effect of siRNA transfection on cell numbers and CD34+/CD34+CD90+ cells", "format": "cell-based, human", "conditions": "VPA culture, 72 hrs after transfection", "protocol": "CB CD34+ cells were treated with VPA under SF culture conditions. VPA-treated cells were transfected with individual SOX2, OCT4, NANOG, GAPDH, and scrambled siRNA or with a combination of SOX2, OCT4, and NANOG Silencer Select siRNAs (Invitrogen, CA). A GFP plasmid was included to determine the transfection efficiency according to the manufacturer's instructions for the Neon transfection system (Invitrogen).\nAfter 72 hours of VPA treatment, cells (0.5×10^6 to 1×10^6) were washed in PBS and suspended in 8 μl of Neon resuspension buffer R. Individual siRNAs (2 μl, 10-30 nM) or a combination of SOX2, OCT4, NANOG (SON), or pcDNA6.2/EmGFP plasmid (200 ng; Invitrogen) were mixed with the 8 μl of cells according to the manufacturer's instructions. Cells were pulsed three times with a voltage of 1,400 and a width of 20 ms and immediately transferred to pre-warmed media supplemented with cytokines plus VPA. […]\nIn addition, cells treated with scrambled or combined SON siRNA were stained using human CD34 and CD90 mAbs, and the percentages of CD34+ and CD34+CD90+ cells were determined by flow cytometric analysis. […] SOX2, OCT4, NANOG, and ZIC3 protein expression levels following SON siRNA-mediated pluripotency gene knockdown were assessed by confocal microscopy as described above."}},
  "data": [
    {"smiles": "CCCC(CCC)C(=O)O", "note": "[VPA, valproic acid]", "values": [
      {"measurement": "homing of CD34+ cells to the marrow of NSG mice", "setting": "NSG mice", "value": "increased horning of CD34+ cells"},
      {"measurement": "HDAC2 expression relative to b-ACTIN (%)", "setting": "HDAC2", "value": "45.8 ± 25.2", "unit": "%"},
      {"measurement": "HDAC3 expression relative to b-ACTIN (%)", "setting": "HDAC3", "value": "11.4 ± 12.4", "unit": "%"},
      {"measurement": "percentage of CD34+ cells expressing NANOG", "setting": "NANOG; SC cultures", "value": "5.6 ± 1.4^A %"},
      {"measurement": "percentage of CD34+ cells expressing NANOG", "setting": "NANOG; SF cultures", "value": "57.6 ± 6.8^A %"},
      {"measurement": "percentage of CD34+ cells expressing OCT4", "setting": "OCT4; SC cultures", "value": "8.2 ± 1.7^A %"},
      {"measurement": "percentage of CD34+ cells expressing OCT4", "setting": "OCT4; SF cultures", "value": "32.9 ± 3.8^A %"},
      {"measurement": "percentage of CD34+ cells expressing SOX2", "setting": "SOX2; SC cultures", "value": "3.9 ± 1.9^A %"},
      {"measurement": "percentage of CD34+ cells expressing SOX2", "setting": "SOX2; SF cultures", "value": "23.1 ± 6.5^A %"},
      {"measurement": "percent CD34+CD90+ cells, flow cytometric analysis (FIG. 4A)", "setting": "CD34+CD90+ cells; SF culture with VPA 7 days, one of 3 representative experiments", "value": 82.9, "unit": "%"},
      {"measurement": "CD34+CD90+ cells in G0/G1", "setting": "CD34+CD90+ cells; day 7, BrdU pulse 2.5 hours", "value": "23.2%±13.8%"},
      {"measurement": "CD34+CD90+ cells in G2/M", "setting": "CD34+CD90+ cells; day 7, BrdU pulse 2.5 hours", "value": "18.0%±1.2%"},
      {"measurement": "CD34+CD90+ cells in S phase", "setting": "CD34+CD90+ cells; day 7, BrdU pulse 2.5 hours", "value": "29.4%±7.9%"},
      {"measurement": "hTERT expression", "setting": "hTERT", "value": "not upregulated"},
      {"measurement": "CD34+CD90+ cells (%)", "setting": "CB CD34+ cells", "value": "78.6 ± 2.0", "unit": "%"},
      {"measurement": "Total number of cells/well", "setting": "CB CD34+ cells", "value": "4.0 × 10^6 ± 0.4 × 10^6 cells/well"}
    ]}
  ]
}
